Test results taken from the supplement of paper PMC10307832.

Tests used:
Experiment in all cases: relative viability (nuclei count vs DMSO), 5 days (fraction); higher = more cells survive
[1] = test system: A-427
Method in brief: (§1)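 For relative viability, nuclei counts in treated wells were divided by those in vehicle wells. Lung cancer cell lines had been pin-tool dosed in 1536-well plates the day after seeding and cultured for 5 days, then fixed and stained in one step (final 0.05% Triton X-100, 1% formaldehyde, 1 ug/ml Hoechst) and imaged at 4×. Doses were one drug alone or a fixed anchor-drug dose plus five library-drug doses (not always all listed) in √10 steps, and values are duplicate-plate medians.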

[2] = test system: CAL-12T
Method in brief: as §1

[3] = test system: COR-L 105
Method in brief: as §1

[4] = test system: COR-L23
Method in brief: as §1

[5] = test system: EPLC-272H
Method in brief: as §1

[6] = test system: HOP-62
Method in brief: as §1

[7] = test system: LCLC-103H
Method in brief: as §1

[8] = test system: LXF-289
Method in brief: as §1

[9] = test system: NCI-H1651
Method in brief: as §1

[10] = test system: NCI-H1975
Method in brief: as §1

[11] = test system: NCI-H1993
Method in brief: as §1

[12] = test system: NCI-H2023
Method in brief: as §1

[13] = test system: NCI-H2085
Method in brief: as §1

[14] = test system: NCI-H2087
Method in brief: as §1

[15] = test system: NCI-H2170
Method in brief: as §1

[16] = test system: NCI-H3122
Method in brief: as §1

[17] = test system: NCI-H596
Method in brief: as §1

[18] = test system: NCI-H647
Method in brief: as §1

[19] = test system: NCI-H650
Method in brief: as §1

[20] = test system: PC-14
Method in brief: as §1

[21] = test system: RERF-LC-KJ
Method in brief: as §1

[22] = test system: SK-MES-1
Method in brief: as §1

O=C(O)CCCCC(CCSCc1ccccc1)SCc1ccccc1 (stereo not given) [CPI-613] + C[C@@H](Oc1cc(-c2cnn(C3CCNCC3)c2)cnc1N)c1c(Cl)ccc(F)c1Cl [Crizotinib] (partner 1 µM)
relative viability ([1]; first compound 5 µM): 0.89 | relative viability ([1]; first compound 15.81 µM): 0.885 | relative viability ([1]; first compound 50 µM): 0.754 | relative viability ([1]; first compound 158.11 µM): 0.175 | relative viability ([1]; first compound 500 µM): 0.126 | relative viability ([2]; first compound 5 µM): 0.596 | relative viability ([2]; first compound 15.81 µM): 0.504 | relative viability ([2]; first compound 50 µM): 0.471 | relative viability ([2]; first compound 158.11 µM): 0.0667 | relative viability ([2]; first compound 500 µM): 0.0085 | relative viability ([3]; first compound 5 µM): 0.727 | relative viability ([3]; first compound 15.81 µM): 0.772 | relative viability ([3]; first compound 50 µM): 0.753 | relative viability ([3]; first compound 158.11 µM): 0.242 | relative viability ([3]; first compound 500 µM): 0.169 | relative viability ([4]; first compound 5 µM): 0.635 | relative viability ([4]; first compound 15.81 µM): 0.598 | relative viability ([4]; first compound 50 µM): 0.647 | relative viability ([4]; first compound 158.11 µM): 0.226 | relative viability ([4]; first compound 500 µM): 0.0141 | relative viability ([5]; first compound 5 µM): 0.9 | relative viability ([5]; first compound 15.81 µM): 0.925 | relative viability ([5]; first compound 50 µM): 1.03 | relative viability ([5]; first compound 158.11 µM): 0.855 | relative viability ([5]; first compound 500 µM): 1.07 | relative viability ([6]; first compound 5 µM): 0.862 | relative viability ([6]; first compound 15.81 µM): 0.85 | relative viability ([6]; first compound 50 µM): 0.851 | relative viability ([6]; first compound 158.11 µM): 0.172 | relative viability ([6]; first compound 500 µM): 0.387 | relative viability ([7]; first compound 5 µM): 1.11 | relative viability ([7]; first compound 15.81 µM): 1.1 | relative viability ([7]; first compound 50 µM): 0.917 | relative viability ([7]; first compound 158.11 µM): 0.855 | relative viability ([7]; first compound 500 µM): 0.861 | relative viability ([8]; first compound 5 µM): 0.776 | relative viability ([8]; first compound 15.81 µM): 0.764 | relative viability ([8]; first compound 50 µM): 0.73 | relative viability ([8]; first compound 158.11 µM): 0.295 | relative viability ([8]; first compound 500 µM): 0.0479 | relative viability ([9]; first compound 5 µM): 0.838 | relative viability ([9]; first compound 15.81 µM): 0.769 | relative viability ([9]; first compound 50 µM): 0.922 | relative viability ([9]; first compound 158.11 µM): 0.818 | relative viability ([9]; first compound 500 µM): 0.927 | relative viability ([10]; first compound 5 µM): 0.931 | relative viability ([10]; first compound 15.81 µM): 0.982 | relative viability ([10]; first compound 50 µM): 0.945 | relative viability ([10]; first compound 158.11 µM): 0.499 | relative viability ([10]; first compound 500 µM): 0.0749 | relative viability ([11]; first compound 5 µM): 0.862 | relative viability ([11]; first compound 15.81 µM): 0.852 | relative viability ([11]; first compound 50 µM): 1.01 | relative viability ([11]; first compound 158.11 µM): 0.639 | relative viability ([11]; first compound 500 µM): 0.438 | relative viability ([12]; first compound 5 µM): 0.583 | relative viability ([12]; first compound 15.81 µM): 0.605 | relative viability ([12]; first compound 50 µM): 0.598 | relative viability ([12]; first compound 158.11 µM): 0.388 | relative viability ([12]; first compound 500 µM): 0.0057 | relative viability ([13]; first compound 5 µM): 0.786 | relative viability ([13]; first compound 15.81 µM): 0.886 | relative viability ([13]; first compound 50 µM): 0.839 | relative viability ([13]; first compound 158.11 µM): 0.415 | relative viability ([13]; first compound 500 µM): 0.231 | relative viability ([14]; first compound 5 µM): 0.909 | relative viability ([14]; first compound 15.81 µM): 0.706 | relative viability ([14]; first compound 50 µM): 0.706 | relative viability ([14]; first compound 158.11 µM): 0.132 | relative viability ([14]; first compound 500 µM): 0.0499 | relative viability ([15]; first compound 5 µM): 1.15 | relative viability ([15]; first compound 15.81 µM): 1.18 | relative viability ([15]; first compound 50 µM): 1.13 | relative viability ([15]; first compound 158.11 µM): 0.746 | relative viability ([15]; first compound 500 µM): 0.335 | relative viability ([16]; first compound 5 µM): 0.234 | relative viability ([16]; first compound 15.81 µM): 0.261 | relative viability ([16]; first compound 50 µM): 0.281 | relative viability ([16]; first compound 158.11 µM): 0.247 | relative viability ([16]; first compound 500 µM): 0.0651 | relative viability ([17]; first compound 5 µM): 0.959 | relative viability ([17]; first compound 15.81 µM): 0.966 | relative viability ([17]; first compound 50 µM): 1.1 | relative viability ([17]; first compound 158.11 µM): 0.589 | relative viability ([17]; first compound 500 µM): 0.0472 | relative viability ([18]; first compound 5 µM): 0.853 | relative viability ([18]; first compound 15.81 µM): 1.01 | relative viability ([18]; first compound 50 µM): 0.769 | relative viability ([18]; first compound 158.11 µM): 0.0681 | relative viability ([18]; first compound 500 µM): 0.0175 | relative viability ([19]; first compound 5 µM): 0.665 | relative viability ([19]; first compound 15.81 µM): 0.703 | relative viability ([19]; first compound 50 µM): 0.677 | relative viability ([19]; first compound 158.11 µM): 0.626 | relative viability ([19]; first compound 500 µM): 0.649 | relative viability ([20]; first compound 5 µM): 0.871 | relative viability ([20]; first compound 15.81 µM): 0.939 | relative viability ([20]; first compound 50 µM): 0.799 | relative viability ([20]; first compound 158.11 µM): 0.848 | relative viability ([20]; first compound 500 µM): 0.33 | relative viability ([21]; first compound 5 µM): 0.841 | relative viability ([21]; first compound 15.81 µM): 0.789 | relative viability ([21]; first compound 50 µM): 0.76 | relative viability ([21]; first compound 158.11 µM): 0.876 | relative viability ([21]; first compound 500 µM): 0.268 | relative viability ([22]; first compound 5 µM): 0.918 | relative viability ([22]; first compound 15.81 µM): 0.961 | relative viability ([22]; first compound 50 µM): 0.936 | relative viability ([22]; first compound 158.11 µM): 0.926 | relative viability ([22]; first compound 500 µM): 0.734
